“And” between values parts separate entries of the source, which are not always exact repeats. Identical values can stand only once. Counter-ions that a name gives are not always drawn.

In general, IC50 refers to the concentration needed to halve the response being measured. In general, inhibition refers to the percentage by which the read-out fell short of the control.

Assay [1] is described as follows: ABTS free radicals scavenging assay. The following applies: for IC50: read-out: IC50 ABTS free radicals scavenging.
Assay [2] can be described thus: DPPH radicals scavenging assay. To be noted: for IC50: read-out: IC50 DPPH free radicals scavenging.
For assay [3], the target named is α-glucosidase from Saccharomyces cerevisiae (Saccharomyces cerevisiae, UniProt P53341). Put plainly: α-Glucosidase inhibition, chromogenic assay. The format is biochemical. To be noted: for inhibition at 15.62 µg/mL / inhibition at 31.25 µg/mL / inhibition at 62.5 µg/mL / inhibition at 125 µg/mL / inhibition at 250 µg/mL / inhibition at 500 µg/mL / inhibition at 1000 µg/mL: read-out: (%) Inhibition α-glucosidase.
Chain of α-glucosidase from Saccharomyces cerevisiae (P53341 whole entry): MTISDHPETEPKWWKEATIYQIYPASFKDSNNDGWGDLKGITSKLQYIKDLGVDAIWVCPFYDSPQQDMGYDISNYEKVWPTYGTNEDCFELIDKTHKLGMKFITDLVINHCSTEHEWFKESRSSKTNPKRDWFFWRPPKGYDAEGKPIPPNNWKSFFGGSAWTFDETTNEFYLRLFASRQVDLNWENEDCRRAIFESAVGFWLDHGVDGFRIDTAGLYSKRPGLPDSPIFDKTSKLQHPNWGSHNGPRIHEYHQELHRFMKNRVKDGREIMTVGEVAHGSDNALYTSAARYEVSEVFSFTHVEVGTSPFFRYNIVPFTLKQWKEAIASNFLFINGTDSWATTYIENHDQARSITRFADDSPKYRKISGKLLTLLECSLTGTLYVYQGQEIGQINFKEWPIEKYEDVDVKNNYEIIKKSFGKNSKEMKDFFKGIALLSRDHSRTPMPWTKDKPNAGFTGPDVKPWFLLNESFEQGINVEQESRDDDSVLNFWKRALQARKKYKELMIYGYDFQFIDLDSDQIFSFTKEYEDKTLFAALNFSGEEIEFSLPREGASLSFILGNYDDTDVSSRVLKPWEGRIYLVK

The target in assay [4] is BChE (lyophilized equine serum) (Equus caballus, UniProt P81908). Put plainly: Butyrylcholinesterase inhibition, Ellman's assay. The format is biochemical. To be noted: for inhibition at 15.62 µg/mL / inhibition at 31.25 µg/mL / inhibition at 62.5 µg/mL / inhibition at 125 µg/mL / inhibition at 250 µg/mL / inhibition at 500 µg/mL / inhibition at 1000 µg/mL: read-out: (%) Inhibition BChE. On the technique in general: In Ellman's method for cholinesterases, released thiocholine reacts with DTNB.
Chain of BChE (lyophilized equine serum) (P81908 whole entry): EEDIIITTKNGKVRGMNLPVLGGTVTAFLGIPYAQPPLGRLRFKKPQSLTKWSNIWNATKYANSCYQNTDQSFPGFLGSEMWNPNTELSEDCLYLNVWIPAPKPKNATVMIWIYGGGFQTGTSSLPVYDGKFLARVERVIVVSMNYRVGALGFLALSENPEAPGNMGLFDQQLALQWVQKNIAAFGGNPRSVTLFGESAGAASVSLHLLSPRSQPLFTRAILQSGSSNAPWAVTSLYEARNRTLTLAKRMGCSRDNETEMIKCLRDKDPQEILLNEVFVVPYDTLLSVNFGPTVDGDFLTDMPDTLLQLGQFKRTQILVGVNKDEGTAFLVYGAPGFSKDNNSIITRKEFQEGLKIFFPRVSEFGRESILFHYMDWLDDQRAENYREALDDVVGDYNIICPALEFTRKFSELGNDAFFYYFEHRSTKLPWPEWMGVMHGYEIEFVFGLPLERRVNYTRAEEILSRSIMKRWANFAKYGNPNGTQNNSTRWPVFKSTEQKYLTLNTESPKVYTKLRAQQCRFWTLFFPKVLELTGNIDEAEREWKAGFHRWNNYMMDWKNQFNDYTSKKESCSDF

Assay [5] addresses α-glucosidase (Saccharomyces cerevisiae, UniProt P53341). Put plainly: Michaelis–Menten kinetics of α-glucosidase inhibition. Format: biochemical. To be noted: Michaelis–Menten / Lineweaver–Burk.
In assay [6] the target is AChE electric eel (Electrophorus electricus, UniProt O42275). Put plainly: biochemical. The following applies: for inhibition at 15.62 µg/mL / inhibition at 31.25 µg/mL / inhibition at 62.5 µg/mL / inhibition at 125 µg/mL / inhibition at 250 µg/mL / inhibition at 500 µg/mL / inhibition at 1000 µg/mL: read-out: (%) Inhibition AChE.
Chain of AChE electric eel (O42275 24-633): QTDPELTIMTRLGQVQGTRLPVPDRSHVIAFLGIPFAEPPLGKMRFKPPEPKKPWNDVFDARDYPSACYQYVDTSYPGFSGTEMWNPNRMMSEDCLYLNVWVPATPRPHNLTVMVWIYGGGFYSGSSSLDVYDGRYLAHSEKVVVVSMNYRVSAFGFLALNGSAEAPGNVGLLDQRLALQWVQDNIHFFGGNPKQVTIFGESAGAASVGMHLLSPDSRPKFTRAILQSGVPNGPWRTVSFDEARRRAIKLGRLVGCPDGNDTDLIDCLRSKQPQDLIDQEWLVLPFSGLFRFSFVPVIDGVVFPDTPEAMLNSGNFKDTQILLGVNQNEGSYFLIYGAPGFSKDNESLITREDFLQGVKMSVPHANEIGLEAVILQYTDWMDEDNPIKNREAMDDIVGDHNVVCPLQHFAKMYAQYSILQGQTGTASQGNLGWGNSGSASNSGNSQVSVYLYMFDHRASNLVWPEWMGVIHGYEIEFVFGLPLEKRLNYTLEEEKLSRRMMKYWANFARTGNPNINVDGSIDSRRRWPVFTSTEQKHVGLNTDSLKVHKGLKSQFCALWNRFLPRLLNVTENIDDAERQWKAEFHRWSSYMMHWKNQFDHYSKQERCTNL
In assay [7] the target is butyrylcholinesterase (Equus caballus, UniProt P81908). The assay is described as follows: Michaelis–Menten kinetics of butyrylcholinesterase inhibition. The format is biochemical, equine. The following applies: Michaelis–Menten / Lineweaver–Burk.
Chain of butyrylcholinesterase (P81908 whole entry): as the sequence (P81908 whole entry) above
The target of assay [8] is acetylcholinesterase (Electrophorus electricus, UniProt O42275). Put plainly: Michaelis–Menten kinetics of acetylcholinesterase inhibition. The format is biochemical, electric eel. The following applies: Michaelis–Menten / Lineweaver–Burk.
Chain of acetylcholinesterase (O42275 24-633): as the sequence (O42275 24-633) above
Assay [9] in a line: Hydrogen peroxide free radicals scavenging assay. The following applies: read-out: IC50 H2O2 free radicals scavenging.

Chain of α-glucosidase (P53341 whole entry): as the sequence (P53341 whole entry) above

Consider `O=C1O[C@H]([C@@H](O)CO)C(O)=C1O` [Ascorbic acid (Std.), ascorbic acid, reference compound], for which the “(%) Inhibition ABTS” value is on record as 46.00±0.58% in assay [1] (15.62 μg/mL); 52.67±0.89% in assay [1] (31.25 μg/mL); 58.00±1.15% in assay [1] (62.5 μg/mL); 67.00±0.00% in assay [1] (125 μg/mL); 75.03±0.23% in assay [1] (250 μg/mL); 81.70±1.60% in [1] (500 μg/mL). For the same molecule, the “(%) Inhibition ABTS” value in [1] (1000 μg/mL) came to 87.73±0.78%. Also, the IC50 was determined as 85.2 µM in assay [1] and 96.5 µM in [2]. The “(%) Inhibition DPPH” value in [2] (15.62 μg/mL) was 48.70 ± 0.90%; in [2] (31.25 μg/mL) it was 55.23 ± 1.21%; in assay [2] (62.5 μg/mL), 61.40 ± 1.85%; in assay [2] (125 μg/mL), 69.66 ± 1.36%; in [2] (250 μg/mL), 77.00 ± 1.73%; in [2] (500 μg/mL), 83.96 ± 1.91%. In assay [2] (1000 μg/mL), the “(%) Inhibition DPPH” value was 89.00 ± 0.57%.
Turning to `C[C@](C=O)(c1ccccc1)[C@@H]1CC(=O)N(c2ccccc2)C1=O` [Compound 2, (R)-2-((S)-2,5-dioxo-1-phenylpyrrolidin-3-yl)-2-phenylpropanal], the “(%) Inhibition ABTS” value in assay [1] (15.62 μg/mL) is 12.33±1.67 %; in assay [1] (31.25 μg/mL), 22.83±1.21 %; in assay [1] (62.5 μg/mL), 38.10±0.90 %; in assay [1] (125 μg/mL), 49.31±0.58 %; in assay [1] (250 μg/mL) it was 59.87±0.85 %; in assay [1] (500 μg/mL) it was 68.51±0.54 %. Besides, the “(%) Inhibition ABTS” value in assay [1] (1000 μg/mL) came out at 75.76±0.61 %. Further, the IC50 is 498 µM in [1]; 472 µM in assay [3]; 358 µM in assay [4]; 407 µM in assay [2]; 423 µM in assay [6]. The values for the inhibition at 15.62 µg/mL in assay [3], in assay [4] and in [6] were 28.8 ± 1.5%, 23.4 ± 0.82% and 21.3 ± 0.87%, respectively. Moreover, the values for the inhibition at 31.25 µg/mL in assay [3], in assay [4] and in assay [6] were 34 ± 0.35%, 31.2 ± 0.47% and 27.2 ± 0.47%, respectively. Moreover, the inhibition at 62.5 µg/mL in assay [3] is 41.9 ± 0.96%; in assay [4], 42 ± 0.97%; in assay [6] it was 39.1 ± 0.54%. Also, the inhibition at 125 µg/mL in assay [3] amounted to 47.8 ± 1.5%; in [4] it was 51.9 ± 0.45%; in [6], 48 ± 0.3%. Besides, the inhibition at 250 µg/mL in assay [3] was found to be 55.8 ± 0.71%; in assay [4] it was 62.12 ± 0.54%; in assay [6] it was 59.9 ± 0.6%. In addition, the inhibition at 500 µg/mL in assay [3] was determined as 65.08 ± 0.47%; in [4], 72.54 ± 0.6%; in assay [6], 70.5 ± 0.9%. The inhibition at 1000 µg/mL in assay [3] was determined as 71.8 ± 1.24%; in assay [4] it was 79 ± 1.03%; in assay [6], 77.23 ± 0.22%. The “Vmax, α-glucosidase” value in assay [5] came out at 3.542 µg/min. For the same molecule, the “(%) Inhibition DPPH” value in assay [2] (15.62 μg/mL) came to 13.70±1.60 %; in assay [2] (31.25 μg/mL), 23.55 ± 1.85 %; in [2] (62.5 μg/mL), 36.36 ± 0.91 %; in assay [2] (125 μg/mL), 50.07 ± 0.97 %; in assay [2] (250 μg/mL), 61.31 ± 1.97 %; in [2] (500 μg/mL) it was 70.34 ±1.10 %. Also, in [2] (1000 μg/mL), the “(%) Inhibition DPPH” value is 77.04 ± 1.61 %. In addition, the “Vmax, butyrylcholinesterase inhibition” value in assay [7] amounted to 2.867 µg/min. Further, the “Vmax, acetylcholinesterase inhibition” value in [8] was found to be 78.65 µg/min.
Take `C[C@H]1O[C@H](O[C@H]2[C@H](O)[C@@H](O)[C@@H](O[C@H]3[C@H](O)[C@@H](O)C(O)O[C@@H]3CO)O[C@@H]2CO)[C@H](O)[C@@H](O)[C@@H]1N[C@H]1C=C(CO)[C@@H](O)[C@H](O)[C@H]1O` (some centres unmarked) [Acarbose (Std), acarbose, reference compound]: in assay [3], the inhibition at 15.62 µg/mL came out at 41.8 ± 0.37%, the inhibition at 31.25 µg/mL amounted to 49.9 ± 0.48%, the inhibition at 62.5 µg/mL turned out to be 57.7 ± 0.88% and the inhibition at 125 µg/mL came to 63.9 ± 1.27%. Besides, in assay [3], the inhibition at 250 µg/mL is 72 ± 2.01%, the inhibition at 500 µg/mL turned out to be 75.1 ± 1.04% and the inhibition at 1000 µg/mL was determined as 83.6 ± 1.67%. Further, in [5], the “Vmax, α-glucosidase” value is 2.639 µg/min and 2.616 µg/min.
Turning to `O=CC1([C@@H]2CC(=O)N(c3ccccc3)C2=O)CCCCC1` [Compound 1, (S)-1-(2,5-dioxo-1-phenylpyrrolidin-3-yl) cyclohexanecarbaldehyde], the “(%) Inhibition ABTS” value in [1] (15.62 μg/mL) was 16.60±1.63 %; in assay [1] (31.25 μg/mL), 26.87±0.85 %; in [1] (62.5 μg/mL) it was 40.51±0.54 %; in [1] (125 μg/mL), 54.49±0.60 %; in [1] (250 μg/mL) it was 61.22±1.28 %; in assay [1] (500 μg/mL), 67.31±0.58 %. For the same molecule, the “(%) Inhibition ABTS” value in assay [1] (1000 μg/mL) is 79.87±1.27 %. Further, the IC50 in assay [1] was 333 µM; in assay [3], 158 µM; in assay [9] it was 826 µM; in assay [4], 277 µM; in [2], 298 µM; in [6], 343 µM. Besides, the values for the inhibition at 15.62 µg/mL in [3], in [4] and in assay [6] were 28 ± 0.35%, 15.4 ± 0.9% and 12.8 ± 1.5%, respectively. The results for the inhibition at 31.25 µg/mL in assay [3], in assay [4] and in assay [6] were 34.4 ± 0.43%, 26.1 ± 1.04% and 23.9 ± 0.88%, respectively. Besides, the inhibition at 62.5 µg/mL in assay [3] turned out to be 44.9 ± 1.55%; in assay [4] it was 44.6 ± 0.63%; in [6], 41.1 ± 0.47%. Further, the results for the inhibition at 125 µg/mL in assay [3], in assay [4] and in [6] were 58.8 ± 0.71%, 59.8 ± 1.21% and 57.03 ± 0.35%, respectively. The inhibition at 250 µg/mL in assay [3] came out at 68.8 ± 1.24%; in assay [4] it was 69.7 ± 0.91%; in assay [6] it was 68.6 ± 1.06%. Besides, the inhibition at 500 µg/mL was 72.9 ± 0.96% in [3], 75.76 ± 0.61% in assay [4] and 72.76 ± 0.71% in [6]. Also, the inhibition at 1000 µg/mL in [3] came to 79.6 ± 1.12%; in [4] it was 81.49 ± 0.6%; in [6] it was 78.42 ± 0.43%. Moreover, in assay [5], the “Vmax, α-glucosidase” value is given as 2.360 µg/min. In addition, the “(%) Inhibition DPPH” value in assay [2] (15.62 μg/mL) is 28.23 ± 1.71 %; in assay [2] (31.25 μg/mL), 34.05 ± 1.40 %; in [2] (62.5 μg/mL), 44.66 ± 0.88 %; in [2] (125 μg/mL), 58.50 ± 1.61 %; in assay [2] (250 μg/mL), 68.40 ± 1.97 %; in [2] (500 μg/mL), 72.83 ± 1.89 %. For the same molecule, the “(%) Inhibition DPPH” value in [2] (1000 μg/mL) is recorded as 79.53 ± 1.92 %. Further, the “Vmax, butyrylcholinesterase inhibition” value in [7] came to 1.553 µg/min. Moreover, the “Vmax, acetylcholinesterase inhibition” value in assay [8] came out at 84.93 µg/min.
Turning to `COc1ccc2c3c1O[C@H]1C[C@@H](O)C=C[C@@]31CCN(C)C2` [Galanthamine (Std.), galanthamine hydrobromide, reference compound], in [4], the inhibition at 15.62 µg/mL was 49.7 ± 0.68%, the inhibition at 31.25 µg/mL was 59.33 ± 0.49%, the inhibition at 62.5 µg/mL is 69.03 ± 0.23% and the inhibition at 125 µg/mL amounted to 73.23 ± 0.4%. In [4], the inhibition at 250 µg/mL turned out to be 80.74 ± 0.68%, the inhibition at 500 µg/mL worked out at 86.9 ± 0.48% and the inhibition at 1000 µg/mL came out at 93.9 ± 0.96%. Also, the “Vmax, butyrylcholinesterase inhibition” value in assay [7] (listed as galantamine) was 2.566 µg/min and 2.641 µg/min.

The record behind these values is paper PMC7285812 (Drug Design, Development and Therapy, 2020).
